Results taken from ChEMBL document CHEMBL3351827, “Design, synthesis and evaluation of novel 5-phenylpyridin-2(1H)-one derivatives as potent reversible Bruton's tyrosine kinase inhibitors” (Bioorg Med Chem, 2015).
Activity calls are given as the source filed them. The rule behind the calls is not given here.

Experiments:
[1] = biological target: T1, Tyrosine-protein kinase BTK (Homo sapiens, UniProt Q06187); experiment: Inhibition of BTK (unknown origin) using biotin-labeled peptide substrate incubated for 1 hr by TR-FRET based HTRF kinase assay
T1 sequence (Q06187 whole entry): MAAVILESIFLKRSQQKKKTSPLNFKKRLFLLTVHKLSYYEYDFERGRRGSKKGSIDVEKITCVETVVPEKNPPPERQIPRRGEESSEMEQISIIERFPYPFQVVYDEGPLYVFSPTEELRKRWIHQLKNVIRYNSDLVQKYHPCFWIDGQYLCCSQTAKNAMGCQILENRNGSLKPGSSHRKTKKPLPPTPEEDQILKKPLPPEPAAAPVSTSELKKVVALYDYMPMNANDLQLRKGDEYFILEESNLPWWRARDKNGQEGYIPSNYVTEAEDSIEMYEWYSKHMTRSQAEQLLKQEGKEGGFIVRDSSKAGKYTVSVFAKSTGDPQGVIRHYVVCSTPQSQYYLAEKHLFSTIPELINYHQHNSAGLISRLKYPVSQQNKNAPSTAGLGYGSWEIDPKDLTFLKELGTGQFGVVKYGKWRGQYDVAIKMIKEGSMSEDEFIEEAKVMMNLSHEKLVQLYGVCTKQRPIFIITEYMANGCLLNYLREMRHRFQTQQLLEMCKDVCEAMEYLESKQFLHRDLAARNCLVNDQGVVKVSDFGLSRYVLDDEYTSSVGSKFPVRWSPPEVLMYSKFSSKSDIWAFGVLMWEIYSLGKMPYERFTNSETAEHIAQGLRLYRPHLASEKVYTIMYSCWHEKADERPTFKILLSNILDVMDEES

[2] = biological target: T1, Tyrosine-protein kinase BTK; experiment: Inhibition of BTK in human Ramos cells assessed as reduction in IgM-induced calcium influx incubated for 20 mins by Fluo-4 dye based fluorescence assay; format: cell-based
Rattus norvegicus [3] = experiment: Inhibition of collagen-induced arthritis in Wistar rat assessed as reduction in disease progression at 20 mg/kg, po dosed for 13 days starting from day 14 post collagen challenge; format: functional, organism-based; set-up: dose 20 mg/kg
[4] = Cmax in Sprague-Dawley rat at 1 mg/kg, iv measured during 2 mins to 24 hrs period post dose by LC/MS/MS method; format: ADME, organism-based; set-up: dose 1 mg/kg, route intravenous; settings: in vivo
[5] = Cmax in Sprague-Dawley rat at 2 mg/kg, po measured during 2 mins to 24 hrs period post dose by LC/MS/MS method; format: ADME, organism-based; set-up: dose 2 mg/kg, route oral; settings: in vivo
[6] = AUC in Sprague-Dawley rat at 1 mg/kg, iv measured during 2 mins to 24 hrs period post dose by LC/MS/MS method; format: ADME, organism-based; set-up: time 0.033-24 hr, dose 1 mg/kg, route intravenous; settings: plasma
[7] = AUC in Sprague-Dawley rat at 2 mg/kg, po measured during 2 mins to 24 hrs period post dose by LC/MS/MS method; format: ADME, organism-based; set-up: time upper 24 hr, time lower 0.033 hr, dose 2 mg/kg, route oral; settings: plasma
[8] = Apparent volume of distribution in Sprague-Dawley rat at 1 mg/kg, iv measured during 2 mins to 24 hrs period post dose by LC/MS/MS method; format: ADME, organism-based; set-up: dose 1 mg/kg, route intravenous; settings: in vivo, read-out: Vz
Rattus norvegicus [9] = experiment: Apparent volume of distribution in Sprague-Dawley rat at 2 mg/kg, po measured during 2 mins to 24 hrs period post dose by LC/MS/MS method; format: ADME, organism-based; set-up: dose 2 mg/kg, route oral; settings: in vivo
[10] = Clearance in Sprague-Dawley rat at 1 mg/kg, iv measured during 2 mins to 24 hrs period post dose by LC/MS/MS method; format: ADME, organism-based; set-up: dose 1 mg/kg, route intravenous; settings: in vivo
[11] = Clearance in Sprague-Dawley rat at 2 mg/kg, po measured during 2 mins to 24 hrs period post dose by LC/MS/MS method; format: ADME, organism-based; set-up: dose 2 mg/kg, route oral; settings: in vivo
[12] = Mean residence time (0 to t) in Sprague-Dawley rat at 1 mg/kg, iv measured during 2 mins to 24 hrs period post dose by LC/MS/MS method; format: ADME, organism-based; set-up: dose 1 mg/kg, route intravenous; settings: in vivo
[13] = Mean residence time (0 to t) in Sprague-Dawley rat at 2 mg/kg, po measured during 2 mins to 24 hrs period post dose by LC/MS/MS method; format: ADME, organism-based; set-up: dose 2 mg/kg, route oral; settings: in vivo
[14] = Half life in Sprague-Dawley rat at 1 mg/kg, iv measured during 2 mins to 24 hrs period post dose by LC/MS/MS method; format: ADME, organism-based; set-up: dose 1 mg/kg, route intravenous; settings: in vivo
[15] = Half life in Sprague-Dawley rat at 2 mg/kg, po measured during 2 mins to 24 hrs period post dose by LC/MS/MS method; format: ADME, organism-based; set-up: dose 2 mg/kg, route oral; settings: in vivo
[16] = Oral bioavailability in Sprague-Dawley rat at 2 mg/kg measured during 2 mins to 24 hrs period post dose by LC/MS/MS method; format: ADME, organism-based; settings: in vivo
Rattus norvegicus [17] = experiment: Toxicity in Wistar rat model of collagen-induced arthritis assessed reduction in body weight at 6 and 20 mg/kg, po dosed for 13 days starting from day 14 post collagen challenge; format: organism-based; set-up: dose 20 mg/kg, route oral; settings: in vivo, 312 h
Rattus norvegicus [18] = species on record: Rattus norvegicus; settings: Wistar, 6 mg/kg
Description: Inhibition of collagen-induced arthritis in Wistar rat assessed as reduction in disease progression at 6 mg/kg, po dosed for 13 days starting from day 14 post collagen challenge

## CN1CCN(c2ccc(Nc3cc(-c4cccc(-n5ccc6cc(C7CC7)cc(F)c6c5=O)c4)cn(C)c3=O)nc2)CC1
[1]
  IC50: 503 nM
[2]
  IC50: 472 nM

## Cc1c(Nc2ncnc3ccccc23)cccc1-c1c[nH]c(=O)c(Nc2ccc(N3CCN(C)CC3)cn2)c1C
[1]
  IC50: > 5000 nM

## CN1CCN(c2ccc(C(=O)Nc3cc(-c4cccc(-n5ccc6cc(C7CC7)cc(F)c6c5=O)c4CO)cn(C)c3=O)cc2)CC1
[1]
  IC50: 818 nM
[2]
  IC50: > 5000 nM

## Cc1c(-c2cc(Nc3ccc(N4CCN(C)CC4)cn3)c(=O)n(C)c2)cccc1N1C(=O)c2ccc(C(C)(C)C)cc2C1=O
[1]
  IC50: > 5000 nM

## Cc1c(-c2cc(Nc3ccc(N4CCN(C5COC5)CC4)cn3)c(=O)n(C)c2)cccc1-n1ccc2cc(C3CC3)cc(F)c2c1=O
[1]
  IC50: 203 nM
[2]
  IC50: 171 nM

## CN1CCN(c2ccc(Nc3cc(-c4cccc(-n5ccc6cc(N(C)C)ncc6c5=O)c4CO)cn(C)c3=O)nc2)CC1
[1]
  IC50: 431 nM
[2]
  IC50: 1030 nM

## Cc1c(NC(=O)c2ccc(C(C)(C)C)cc2)cccc1-c1cc(Nc2ccc(N3CCN(C)CC3)cn2)c(=O)n(C)c1
[1]
  IC50: 875 nM
[2]
  IC50: > 5000 nM

## Cn1cc(-c2cccc(-n3ccc4cc(C5CC5)cc(F)c4c3=O)c2CO)cc(Nc2ccc(C3CCN(C4COC4)CC3)cn2)c1=O
[1]
  IC50: 20 nM
[2]
  IC50: 21 nM

## CN1CCN(c2ccc(Nc3cc(-c4cccc(-n5ccc6nc(C7CC7)ccc6c5=O)c4CO)cn(C)c3=O)nc2)CC1
[1]
  IC50: 564 nM
[2]
  IC50: 3250 nM

## CN1CCN(c2ccc(Nc3cc(-c4cccc(-n5ccc6cc(C7CC7)ncc6c5=O)c4CO)cn(C)c3=O)nc2)CC1
[1]
  IC50: 255 nM
[2]
  IC50: 124 nM

## CN1CCN(c2ccc(Nc3cc(-c4cccc(-n5ccc6ccccc6c5=O)c4CO)cn(C)c3=O)nc2)CC1
[1]
  IC50: 1030 nM

## CN1CC(N2CCN(c3ccc(Nc4cc(-c5cccc(-n6ccc7cc(C8CC8)cc(F)c7c6=O)c5CO)cn(C)c4=O)nc3)CC2)C1
[1]
  IC50: 9 nM
[2]
  IC50: 33 nM

## CN1CCN(c2ccc(Nc3cc(-c4cccc(-n5ccc6cc(C7CC7)cc(F)c6c5=O)c4CO)cn(C)c3=O)nc2)CC1
Rattus norvegicus [3]
  inhibition: Active
[4]
  Cmax: 220 ng/mL
[5]
  Cmax: 34.8 ng/mL
[6]
  AUC: 404 ng·h/mL
[7]
  AUC: 403 ng·h/mL
[8]
  Vd: 50.5 L/kg
Rattus norvegicus [9]
  Vz: 86.69 L/kg
[10]
  clearance: 41.2 mL/min/kg
[11]
  CL/F: 84.5 mL/min/kg
[12]
  MRT last: 6.56 h
[13]
  MRT last: 9.31 h
[14]
  half-life: 14.1 h
[15]
  half-life: 11.5 h
[16]
  bioavailability: 49.9%

## CN1CCN(c2ccc(Nc3cc(-c4cccc(-n5ccc6cc(C7CC7)ccc6c5=O)c4CO)cn(C)c3=O)nc2)CC1
[1]
  IC50: 37 nM
[2]
  IC50: 115 nM

## CN1CCN(c2ccc(CNc3cc(-c4cccc(-n5ccc6cc(C7CC7)cc(F)c6c5=O)c4CO)cn(C)c3=O)cc2)CC1
[1]
  IC50: > 5000 nM

## Cn1cc(-c2cccc(-n3ccc4cc(C5CC5)cc(F)c4c3=O)c2CO)cc(Nc2ccc(N3CCN(C4COC4)CC3)cn2)c1=O
[1]
  IC50: 16 nM
[2]
  IC50: 8 nM
Rattus norvegicus [3]
  inhibition: Active
Rattus norvegicus [17]
  Activity: Non-toxic
[4]
  Cmax: 1090 ng/mL
[5]
  Cmax: 170 ng/mL
[6]
  AUC: 1670 ng·h/mL
[7]
  AUC: 1950 ng·h/mL
[8]
  Vd: 9.28 L/kg
Rattus norvegicus [9]
  Vz: 13.4 L/kg
[10]
  clearance: 7.83 mL/min/kg
[11]
  CL/F: 13.5 mL/min/kg
[12]
  MRT last: 6.48 h
[13]
  MRT last: 8.78 h
[14]
  half-life: 13.6 h
[15]
  half-life: 11.5 h
[16]
  bioavailability: 58.4%
Rattus norvegicus [18]
  inhibition: Active

## Cc1c(-c2cc(Nc3ccc(N4CCN(C)CC4)cn3)c(=O)n(C)c2)cccc1-c1nc2cc(C(C)(C)C)ccc2[nH]1
[1]
  IC50: > 5000 nM

## Cc1c(-c2cc(Nc3ccc(N4CCN(C)CC4)cn3)c(=O)n(C)c2)cccc1-n1ccc2cc(C3CC3)cc(F)c2c1=O
[1]
  IC50: 365 nM
[2]
  IC50: 254 nM

## Cn1cc(-c2cccc(-n3ccc4cc(C5CC5)cc(F)c4c3=O)c2CO)cc(Nc2ccc(N3CCN(C(=O)C4CC4)CC3)cn2)c1=O
[1]
  IC50: 28 nM
[2]
  IC50: 4360 nM
